Measurements as given in patent publication US20230323432A1, “ASSAY FOR DETECTING POINT MUTATIONS” (Bakotic Pathology Associates, LLC, priority 2022, published 2023).

Experiments:
[1] = system: T mentagrophytes (ATCC-28146); experiment: Terbinafine susceptibility testing of isolates by culture on terbinafine-containing agar (CLSI M38-A3); conditions: wild type strain ATCC-28146
Protocol: (§1) The isolates are re-tested for terbinafine drug resistance by plating the isolates on the sabouraud dextrose agar (SDA)/Potato dextrose agar (PDA) plates containing different concentration of terbinafine. Reagent-grade terbinafine (TRB) were obtained in the powder form (Sigma-Aldrich, Missouri, USA). Drug stock solutions were prepared in dimethyl sulfoxide (DMSO). The dermatophyte isolates were cultured on SDA/PDA for 21-30 days. In vitro testing of the susceptibility to Terbinafine allylamine was performed according to the Clinical and Laboratory Standards Institute (CLSI) document M38-A3 (CLSI, 2018). The drugs were analyzed at the final concentration in the range of 0.002-32 μg/ml for TRB.
(§2) Wild type strains for T rubrum (ATCC-22402) and T mentagrophytes (ATCC-28146) are obtained from ATCC.

[2] = system: T rubrum (ATCC-22402); experiment: as above; conditions: wild type strain ATCC-22402
Protocol: as §1, §2

CN(C/C=C/C#CC(C)(C)C)Cc1cccc2ccccc12 [terbinafine]
terbinafine susceptibility by culture [1]: susceptible | terbinafine susceptibility by culture [2]: susceptible
